Measured values: patent publication US9290459B1, “Substituted bicyclic dihydropyrimidinones and their use as inhibitors of neutrophil elastase activity” (Boehringer Ingelheim International GmbH, priority 2013, dated 2016)

The compounds below were run against Human neutrophil elastase (Homo sapiens (Human), UniProt P08246) (assay: Human Neutrophil Elastase Assay). Conditions: human neutrophil elastase, substrate MeOSuc-Ala-Ala-Pro-Val-AMC 250 μM, pH 7.5; read-out: IC50.
Sequence of Human neutrophil elastase (P08246 30-247): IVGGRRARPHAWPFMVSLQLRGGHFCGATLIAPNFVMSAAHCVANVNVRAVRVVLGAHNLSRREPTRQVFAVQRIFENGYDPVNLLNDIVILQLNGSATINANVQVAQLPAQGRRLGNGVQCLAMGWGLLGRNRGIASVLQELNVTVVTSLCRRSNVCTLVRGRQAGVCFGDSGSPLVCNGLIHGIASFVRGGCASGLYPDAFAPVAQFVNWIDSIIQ
Type: biochemical
CNC(=O)N1C(=O)N(c2ccnc(C(F)(F)F)c2)C2=C(C(=O)CC2)C1c1ccc(C#N)cc1 (racemic) [Example 54.1] was tested, and the IC50 was 4.9 nM.
With N#Cc1ccc(C2C3=C(CCC3=O)N(c3ccnc(C(F)(F)F)c3)C(=O)N2C(=O)NC2CC2)cc1 (racemic) [Example 54.3] the IC50 was 1.5 nM.
CC(C)NC(=O)N1C(=O)N(c2ccnc(C(F)(F)F)c2)C2=C(C(=O)CC2)C1c1ccc(C#N)cc1 (racemic) [Example 54.4] showed an IC50 of 2.4 nM.
For CNC(=O)N1C(=O)N(c2ccnc(C(F)(F)F)c2)C2=C(C(=O)CC2)C1c1ccc(C#N)cc1S(C)(=O)=O (racemic) [Example 56.1], the IC50 was under 1 nM.
Work on CCNC(=O)N1C(=O)N(c2ccnc(C(F)(F)F)c2)C2=C(C(=O)CC2)C1c1ccc(C#N)cc1S(C)(=O)=O (racemic) [Example 56.2] yielded an IC50 of under 1 nM.
Compound C[S+]([O-])c1cc(C#N)ccc1C1NC(=O)N(c2cccc(C(F)(F)F)c2)C2=C1C(=O)CC2 (single isomer, unassigned) [Example 17A, 4-(2,5-dioxo-1-(3-(trifluoromethyl)phenyl)-2,3,4,5,6,7-hexahydro-1H-cyclopenta[d]pyrimidin-4-yl)-3-(methylsulfinyl)benzonitrile] has an IC50 of 8.1 nM.
Work on C[S+]([O-])c1cc(C#N)ccc1C1NC(=O)N(c2cccc(C(F)(F)F)c2)C2=C1C(=O)CC2 (single isomer, unassigned) [Example 17B, 4-(2,5-dioxo-1-(3-(trifluoromethyl)phenyl)-2,3,4,5,6,7-hexahydro-1H-cyclopenta[d]pyrimidin-4-yl)-3-(methylsulfinyl)benzonitrile] yielded an IC50 of 9.4 nM.
For COC(=O)CN1C(=O)N(c2cccc(C(F)(F)F)c2)C2=C(C(=O)CC2)C1c1ccc(C#N)cc1 (centres unmarked) [Example 3, Methyl 2-(4-(4-Cyanophenyl)-2,5-dioxo-1-(3-(trifluoromethyl)phenyl)-6,7-dihydro-1H-cyclopenta[d]pyrimidin-3(2H,4H,5H)-yl)acetate], the IC50 was 17 nM.
N#Cc1ccc(C2C3=C(CCC3=O)N(c3cccc(C(F)(F)F)c3)C(=O)N2CC(=O)O)cc1 (centres unmarked) [Example 4, 2-(4-(4-Cyanophenyl)-2,5-dioxo-1-(3-(trifluoromethyl)phenyl)-6,7-dihydro-1H-cyclopenta[d]pyrimidin-3(2H,4H,5H)-yl)acetic acid] was tested, and the IC50 was 10.9 nM.
Compound N#Cc1ccc(C2C3=C(CCC3=O)N(c3cccc(C(F)(F)F)c3)C(=O)N2CC(N)=O)cc1 (centres unmarked) [Example 5, 2-(4-(4-Cyanophenyl)-2,5-dioxo-1-(3-(trifluoromethyl)phenyl)-6,7-dihydro-1H-cyclopenta[d]pyrimidin-3(2H,4H,5H)-yl)acetamide] has an IC50 of 11.2 nM.
Compound N#Cc1ccc(C2C3=C(CCC3=O)N(c3cccc(C(F)(F)F)c3)C(=O)N2CC(=O)N2CCSCC2)cc1 (centres unmarked) [Example 6, 4-(2,5-Dioxo-3-(2-oxo-2-thiomorpholinoethyl)-1-(3-(trifluoromethyl)phenyl)-2,3,4,5,6,7-hexahydro-1H-cyclopenta[d]pyrimidin-4-yl)benzonitrile] has an IC50 of 3 nM.
CN(C)C(=O)N1C(=O)N(c2cccc(C(F)(F)F)c2)C2=C(C(=O)CC2)C1c1ccc(C#N)cc1 (centres unmarked) [Example 7, 4-(4-Cyanophenyl)-N,N-dimethyl-2,5-dioxo-1-(3-(trifluoromethyl)phenyl)-4,5,6,7-tetrahydro-1H-cyclopenta[d]pyrimidine-3(2H)-carboxamide] was tested, and the IC50 was 124 nM.
For COC(=O)N1C(=O)N(c2cccc(C(F)(F)F)c2)C2=C(C(=O)CC2)C1c1ccc(C#N)cc1 (centres unmarked) [Example 8, Methyl 4-(4-Cyanophenyl)-2,5-dioxo-1-(3-(trifluoromethyl)phenyl)-4,5,6,7-tetrahydro-1H-cyclopenta[d]pyrimidine-3(2H)-carboxylate], the IC50 was 4 nM.
Work on CS(=O)(=O)N1C(=O)N(c2cccc(C(F)(F)F)c2)C2=C(C(=O)CC2)C1c1ccc(C#N)cc1 (centres unmarked) [Example 9, 4-(3-(Methylsulfonyl)-2,5-dioxo-1-(3-(trifluoromethyl)phenyl)-2,3,4,5,6,7-hexahydro-1H-cyclopenta[d]pyrimidin-4-yl)benzonitrile] yielded an IC50 of 5.1 nM.
